Measured values: ChEMBL document CHEMBL1146415, “3-Epi-aplykurodinone B, a new degraded sterol from Aplysia fasciata” (1997)

How the values were obtained:
Format in all cases: functional
Details in all cases: read-out: ED50 (the source's name)
A549 = assay: Cytotoxicity against human A549 cells
HT-29 = assay: Cytotoxicity against human HT-29 cells
P388 = assay: Cytotoxicity against mouse P388 cells
SK-MEL-28 = assay: Cytotoxicity against human SK-MEL-28 cells

Measured: EC50

CC(C)=CCC[C@@H](C)[C@H]1C[C@@H]2OC(=O)C[C@@H]3C(=O)CC[C@@]1(C)[C@H]23 [3-EPI-APLYKURODINONE B]
2.5 µg/mL: A549 | HT-29 | P388 | SK-MEL-28
